This is an account of results in ChEMBL document CHEMBL5335794, “Discovery of novel multifunctional ligands targeting GABA transporters, butyrylcholinesterase, β-secretase, and amyloid β aggregation as potential treatment of Alzheimer's disease” (Eur J Med Chem, 2023).

The target in assay [1] is Acetylcholinesterase (Electrophorus electricus) (UniProt O42275). In words: Inhibition of electric eel AChE using acetylthiocholine iodide as substrate at 10 uM preincubated for 5 mins followed by substrate addition and measured after 5 mins by DTNB reagent based Ellman's method relative to control. Conditions: time 10.0 min.
Another assay addresses Beta-secretase 1 (Homo sapiens, UniProt P56817). The note with it: dose 50.0 µM, time 60.0 min.
In assay [2] the target is Sodium- and chloride-dependent GABA transporter 1 (Mus musculus) (UniProt P31648). Nature of the assay: Inhibition of NO 711 marker binding to mouse GAT1 assessed as residual activity at 100 uM by LC-ESI-MS/MS based competitive MS binding assay relative to control.
A further assay addresses T1, GABA transporter 2 (Mus musculus, UniProt P31651).
T1 sequence (P31651 whole entry): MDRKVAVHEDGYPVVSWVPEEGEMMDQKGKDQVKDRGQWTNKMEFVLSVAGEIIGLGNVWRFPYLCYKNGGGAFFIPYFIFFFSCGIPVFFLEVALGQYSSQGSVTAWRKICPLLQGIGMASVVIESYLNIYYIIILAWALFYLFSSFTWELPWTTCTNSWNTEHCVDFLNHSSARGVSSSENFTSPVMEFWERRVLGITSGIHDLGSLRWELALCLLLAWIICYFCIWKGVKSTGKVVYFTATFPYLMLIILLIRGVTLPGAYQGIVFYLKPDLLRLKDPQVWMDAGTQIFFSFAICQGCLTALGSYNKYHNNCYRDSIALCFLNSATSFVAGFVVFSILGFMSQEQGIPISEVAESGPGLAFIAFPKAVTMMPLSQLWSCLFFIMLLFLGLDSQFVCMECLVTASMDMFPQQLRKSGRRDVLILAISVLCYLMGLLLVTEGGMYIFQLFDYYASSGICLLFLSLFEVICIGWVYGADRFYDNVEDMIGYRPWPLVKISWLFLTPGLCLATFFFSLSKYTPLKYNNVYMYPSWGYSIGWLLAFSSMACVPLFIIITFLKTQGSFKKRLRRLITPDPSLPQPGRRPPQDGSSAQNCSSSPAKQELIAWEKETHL
Nature of the assay: Inhibition of mouse GAT2 transfected in HEK293 cells assessed as reduction in [3H]-GABA uptake preincubated for 25 mins followed by [3H]-GABA addition and measured after 10 mins by liquid scintillation counting analysis. The class given is cell-based. The note with it: read-out: pIC50 (converted).

The target of a further assay is T2, GABA transporter 4 (Mus musculus, UniProt P31650).
T2 sequence (P31650 whole entry): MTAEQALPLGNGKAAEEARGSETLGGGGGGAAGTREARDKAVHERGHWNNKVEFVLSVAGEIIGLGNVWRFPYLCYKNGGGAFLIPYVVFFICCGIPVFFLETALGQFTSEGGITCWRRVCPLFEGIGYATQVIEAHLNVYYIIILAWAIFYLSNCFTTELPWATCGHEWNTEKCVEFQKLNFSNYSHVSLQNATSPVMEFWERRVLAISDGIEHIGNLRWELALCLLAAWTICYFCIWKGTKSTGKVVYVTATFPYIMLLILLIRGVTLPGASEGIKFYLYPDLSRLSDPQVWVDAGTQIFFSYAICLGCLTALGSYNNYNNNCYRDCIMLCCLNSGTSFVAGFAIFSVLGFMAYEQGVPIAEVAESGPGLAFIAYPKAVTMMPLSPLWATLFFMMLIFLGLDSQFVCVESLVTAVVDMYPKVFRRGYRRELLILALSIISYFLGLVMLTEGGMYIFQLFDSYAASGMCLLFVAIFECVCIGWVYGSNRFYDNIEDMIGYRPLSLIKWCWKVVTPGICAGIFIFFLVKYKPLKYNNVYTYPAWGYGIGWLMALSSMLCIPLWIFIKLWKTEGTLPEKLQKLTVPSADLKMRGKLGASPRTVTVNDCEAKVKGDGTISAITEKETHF
In words: Inhibition of mouse GAT4 transfected in HEK293 cells assessed as reduction in [3H]-GABA uptake preincubated for 25 mins followed by [3H]-GABA addition and measured after 4 mins by liquid scintillation counting analysis. The class given is cell-based. The note with it: read-out: pIC50 (converted).

Another assay addresses Cholinesterase (Equus caballus, UniProt P81908).
The target of assay [3] is Sodium- and chloride-dependent GABA transporter 1 (Mus musculus, UniProt P31648). Nature of the assay: Inhibition of mouse GAT1 transfected in HEK293 cells assessed as reduction in [3H]-GABA uptake preincubated for 25 mins followed by [3H]-GABA addition and measured after 4 mins by liquid scintillation counting analysis. Conditions: read-out: pIC50 (converted). The class given is cell-based.

Assay [4] is described as follows: Inhibition of mouse GAT3 transfected in HEK293 cells assessed as reduction in [3H]-GABA uptake preincubated for 25 mins followed by [3H]-GABA addition and measured after 4 mins by liquid scintillation counting analysis. Conditions: HEK293; read-out: pIC50 (converted). The class given is cell-based.
The target in assay [5] is Cholinesterase (Equus caballus) (UniProt P81908). In words: Inhibition of equine serum BuChE using butyrylthiocholine iodide as substrate at 10 uM preincubated for 5 mins followed by substrate addition and measured after 5 mins by DTNB reagent based Ellman's method relative to control. The note with it: time 10.0 min. For orientation: Ellman's reagent forms a yellow product with free thiols.
Chain of Cholinesterase (Equus caballus) (P81908 whole entry): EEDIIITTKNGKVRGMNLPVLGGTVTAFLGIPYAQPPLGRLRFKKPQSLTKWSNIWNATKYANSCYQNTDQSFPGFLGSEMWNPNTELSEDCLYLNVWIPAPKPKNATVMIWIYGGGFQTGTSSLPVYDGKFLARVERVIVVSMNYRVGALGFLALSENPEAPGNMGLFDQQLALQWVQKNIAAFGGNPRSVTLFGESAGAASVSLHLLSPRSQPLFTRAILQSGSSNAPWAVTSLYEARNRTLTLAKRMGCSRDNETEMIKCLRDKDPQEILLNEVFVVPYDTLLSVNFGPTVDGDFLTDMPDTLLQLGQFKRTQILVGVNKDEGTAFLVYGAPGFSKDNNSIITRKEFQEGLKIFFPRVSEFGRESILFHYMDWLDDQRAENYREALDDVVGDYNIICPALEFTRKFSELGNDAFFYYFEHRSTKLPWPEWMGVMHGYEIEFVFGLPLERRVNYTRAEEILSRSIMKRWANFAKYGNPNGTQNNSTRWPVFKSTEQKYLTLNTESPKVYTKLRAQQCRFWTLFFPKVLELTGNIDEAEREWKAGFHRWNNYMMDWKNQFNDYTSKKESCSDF

Chain of Acetylcholinesterase (Electrophorus electricus) (O42275 24-633 limits assumed): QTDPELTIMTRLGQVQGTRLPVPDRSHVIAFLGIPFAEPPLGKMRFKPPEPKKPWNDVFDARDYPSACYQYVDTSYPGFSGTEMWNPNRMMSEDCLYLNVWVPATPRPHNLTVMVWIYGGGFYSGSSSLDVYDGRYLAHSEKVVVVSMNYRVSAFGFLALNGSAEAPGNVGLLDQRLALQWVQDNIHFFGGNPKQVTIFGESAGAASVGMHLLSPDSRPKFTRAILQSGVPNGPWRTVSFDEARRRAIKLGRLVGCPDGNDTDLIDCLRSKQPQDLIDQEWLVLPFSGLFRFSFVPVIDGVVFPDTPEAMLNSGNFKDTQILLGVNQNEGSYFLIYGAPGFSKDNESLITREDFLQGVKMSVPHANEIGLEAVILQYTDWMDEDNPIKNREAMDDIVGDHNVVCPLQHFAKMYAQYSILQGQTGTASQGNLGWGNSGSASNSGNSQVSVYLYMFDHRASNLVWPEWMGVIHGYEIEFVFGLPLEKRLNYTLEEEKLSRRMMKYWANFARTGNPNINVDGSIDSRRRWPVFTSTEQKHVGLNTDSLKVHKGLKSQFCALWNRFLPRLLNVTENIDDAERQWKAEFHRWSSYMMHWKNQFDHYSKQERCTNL
Chain of Beta-secretase 1 (P56817 whole entry): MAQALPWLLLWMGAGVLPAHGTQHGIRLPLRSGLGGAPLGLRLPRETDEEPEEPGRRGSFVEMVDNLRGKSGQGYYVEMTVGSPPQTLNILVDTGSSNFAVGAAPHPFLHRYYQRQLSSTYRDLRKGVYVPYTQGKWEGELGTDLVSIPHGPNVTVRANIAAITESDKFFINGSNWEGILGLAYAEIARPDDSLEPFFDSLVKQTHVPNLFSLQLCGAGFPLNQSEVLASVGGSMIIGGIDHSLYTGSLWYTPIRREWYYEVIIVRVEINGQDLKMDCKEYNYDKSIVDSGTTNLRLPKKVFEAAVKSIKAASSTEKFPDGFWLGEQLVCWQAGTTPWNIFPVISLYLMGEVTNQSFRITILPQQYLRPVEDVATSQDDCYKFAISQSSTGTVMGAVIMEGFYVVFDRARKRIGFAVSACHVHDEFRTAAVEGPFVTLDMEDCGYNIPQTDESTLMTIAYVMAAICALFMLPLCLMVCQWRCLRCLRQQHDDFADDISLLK
Chain of Cholinesterase (P81908 whole entry): as the sequence (P81908 whole entry) above

For orientation: inhibition means the change of the read-out against control, counted positive when it falls. A low value points to little suppression. Consider `CN(CCOCCn1c2ccccc2c2ccccc21)C(CCO)C(=O)NCc1ccccc1Cl` (stereo unspecified), for which the inhibition in [1] was below 10%; against Beta-secretase 1 it was 79%. Also, the Activity in [2] amounted to 94%. The IC50 is 16.2 µM on GABA transporter 2; 11.2 µM on GABA transporter 4; 2.65 µM on Cholinesterase; 23.4 µM in [3]; 13.2 µM in assay [4].
Take `CC(O)CC(C(=O)NCc1ccccc1Cl)N(C)CC/C=C/c1ccccc1-c1ccccc1` (racemic; form 2): the inhibition in [1] is below 10%; against Beta-secretase 1 it was 57%. The Activity in assay [2] was determined as 76%.
As for `CN(CC/C=C/c1ccccc1-c1ccccc1)C(CO)C(=O)NCc1ccc(F)cc1` (stereo unspecified), the results for the inhibition (in assay [1]; against Beta-secretase 1) were below 10% and 52%, respectively. Moreover, the Activity in [2] worked out at 94%. In addition, the IC50 at GABA transporter 2 was 22.4 µM; at GABA transporter 4, 30.2 µM; at Cholinesterase it was 0.917 µM; in [3], 28.8 µM; in [4] it was 22.9 µM.
Consider `CN(CC/C=C/c1ccccc1-c1ccccc1)C(CO)C(=O)NCc1ccccc1Cl` (stereo unspecified), for which the inhibition is below 10% in assay [1] and 51% against Beta-secretase 1. Also, the Activity in [2] was 75%. For the same compound, the IC50 at GABA transporter 2 is 11 µM; on GABA transporter 4, 15.5 µM; against Cholinesterase it was 2.27 µM; in assay [3], 16.2 µM; in [4], 17 µM.
Take `CN(CCOCCN1c2ccccc2Sc2ccccc21)C(CCO)C(=O)NCc1ccccc1Cl` (stereo unspecified): the results for the inhibition (in assay [1]; against Beta-secretase 1) were below 10% and 35%, respectively. In assay [2], the Activity is 100%. For the same compound, the IC50 was 31.6 µM on GABA transporter 2; 29.5 µM at GABA transporter 4; 3.55 µM against Cholinesterase; 44.7 µM in [3]; 26.3 µM in [4].
Regarding `CC(O)CC(C(=O)NCc1ccccc1)N(C)CC/C=C/c1ccccc1-c1ccccc1` (racemic; form 1), the inhibition in assay [1] is below 10%; at Beta-secretase 1, 36%; in [5], 58%. Further, in [2], the Activity amounted to 75%.
`CC(=O)NCCC(C(=O)NCc1ccc(F)cc1)N(C)CCOCCN1c2ccccc2Sc2ccccc21` (stereo unspecified): the inhibition in [1] is below 10%; against Beta-secretase 1 it was 45%. Also, the Activity in assay [2] came out at 85%. The IC50 on GABA transporter 2 was 24.5 µM; at GABA transporter 4 it was 18.2 µM; at Cholinesterase, 8.25 µM; in [3], 22.9 µM; in assay [4] it was 10.7 µM.
Take `CN(CCOCCn1c2ccccc2c2ccccc21)C(CCO)C(=O)NCc1ccc(F)cc1` (stereo unspecified): the figures for the inhibition (in assay [1]; against Beta-secretase 1) were below 10% and 65%, respectively. Moreover, in assay [2], the Activity stood at 112%. Also, the IC50 on GABA transporter 2 was 13.8 µM; on GABA transporter 4, 18.2 µM; at Cholinesterase, 4.83 µM; in assay [3], 37.2 µM; in [4], 16.2 µM.
For `CN(CCOCCn1c2ccccc2c2ccccc21)C(CCO)C(=O)NCc1ccccc1` (stereo unspecified), the inhibition is below 10% in [1] and 64% at Beta-secretase 1. In addition, the Activity in assay [2] was 92%. Also, the IC50 at GABA transporter 2 is 26.9 µM; at GABA transporter 4, 17.4 µM; at Cholinesterase, 4.16 µM; in [3], 38 µM; in assay [4], 14.8 µM.
On to `CC(=O)NCCC(C(=O)NCc1ccccc1Cl)N(C)CCOCCN1c2ccccc2Sc2ccccc21` (stereo unspecified), for which the inhibition in assay [1] is below 10%; against Beta-secretase 1 it was 35%. The Activity in assay [2] worked out at 86%. Also, the IC50 on GABA transporter 2 was 20.4 µM; at GABA transporter 4, 10.2 µM; against Cholinesterase, 2.79 µM; in assay [3], 14.1 µM; in assay [4] it was 10.2 µM.
Regarding `CN(CCOCCN1c2ccccc2Sc2ccccc21)C(CCO)C(=O)NCc1ccc(F)cc1` (stereo unspecified), the inhibition in assay [1] was below 10%; against Beta-secretase 1, 42%. In addition, in assay [2], the Activity was determined as 84%. In addition, the IC50 was 11.5 µM on GABA transporter 2; 13.2 µM at GABA transporter 4; 4.54 µM on Cholinesterase; 26.9 µM in assay [3]; 11 µM in [4].
For the compound `CN(CC/C=C/c1ccccc1-c1ccccc1)C(CO)C(=O)NCc1ccccc1` (stereo unspecified), the inhibition in assay [1] was below 10%; on Beta-secretase 1, 42%. Further, the Activity in assay [2] came out at 67%. Further, the IC50 was 20 µM on GABA transporter 2; 17.4 µM at GABA transporter 4; 0.683 µM at Cholinesterase; 25.1 µM in assay [3]; 17 µM in assay [4].
`CC(O)CC(C(=O)NCc1ccc(F)cc1)N(C)CC/C=C/c1ccccc1-c1ccccc1` (racemic; form 1): the inhibition in assay [1] is below 10%; on Beta-secretase 1, 39%; in [5], 59%. Moreover, in assay [2], the Activity is 86%.
On to `CC(=O)NCCC(C(=O)NCc1ccc(C)cc1)N(C)CCOCCN1c2ccccc2Sc2ccccc21` (stereo unspecified), for which the inhibition in assay [1] was below 10%; against Beta-secretase 1 it was 52%. Besides, the Activity in assay [2] stood at 89%. The IC50 on GABA transporter 2 was 14.1 µM; at GABA transporter 4 it was 12.6 µM; against Cholinesterase, 3.2 µM; in assay [3], 22.9 µM; in [4], 7.94 µM.
Turning to `CC(=O)NCCC(C(=O)NCc1ccc(Cl)cc1)N(C)CCOCCN1c2ccccc2Sc2ccccc21` (stereo unspecified), the inhibition in assay [1] is below 10%; on Beta-secretase 1, 41%. Also, the Activity in assay [2] is 91%. The IC50 on GABA transporter 2 is 9.55 µM; at GABA transporter 4 it was 12.3 µM; at Cholinesterase it was 4.7 µM; in assay [3], 19.1 µM; in [4] it was 8.91 µM.
In the case of `CC(O)CC(C(=O)NCc1ccccc1Cl)N(C)CC/C=C/c1ccccc1-c1ccccc1` (racemic; form 1), the values for the inhibition (in assay [1]; against Beta-secretase 1; in [5]) were below 10%, 43% and 64%, respectively. In addition, the Activity in [2] is 75%.
For the compound `CC(O)CC(C(=O)NCc1ccc(F)cc1)N(C)CC/C=C/c1ccccc1-c1ccccc1` (racemic; form 2), the inhibition in assay [1] was below 10%; against Beta-secretase 1, 36%; in [5], 62%. For the same compound, the Activity in assay [2] came to 87%.
In the case of `Cc1ccc(CNC(=O)C(CCO)N(C)CCOCCN2c3ccccc3Sc3ccccc32)cc1` (stereo unspecified), the inhibition in [1] was below 10%; on Beta-secretase 1 it was 30%. In addition, in [2], the Activity was found to be 85%. Also, the IC50 on GABA transporter 2 is 12.9 µM; on GABA transporter 4 it was 19.1 µM; at Cholinesterase, 2.48 µM; in assay [3], 20.4 µM; in assay [4], 8.51 µM.
On to `CN(CCOCCN1c2ccccc2Sc2ccccc21)C(CCO)C(=O)NCc1ccccc1` (stereo unspecified), for which the values for the inhibition (in assay [1]; against Beta-secretase 1) were below 10% and 48%, respectively. Further, the Activity in assay [2] was found to be 93%. Moreover, the IC50 at GABA transporter 2 was 12.9 µM; at GABA transporter 4 it was 21.4 µM; against Cholinesterase it was 4.34 µM; in assay [3], 35.5 µM; in assay [4] it was 8.51 µM.
